Experimental data from patent US11286228B2, “Stilbene derivative and method for preparing same” (Ozchela Inc., priority 2016, dated 2022).
Read-outs that look alike come from different tables or passages of the source.

Legend:
cyclophilin = assay: Cis-trans isomerase inhibitory activity (chymotrypsin-coupled Suc-AAPF-pNA cleavage, absorbance 390 nm); assay type: biochemical
Summary of the method: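 Cyclophilin isomerase activity coupled to chymotrypsin cleavage of Suc-AAPF-pNA: chymotrypsin cuts only the trans peptide, so isomerase-driven cis-to-trans conversion increases cleavage within a fixed period. Released product read by absorbance at 390 nm with compound present alongside cyclophilin.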

hepatitis C virus = assay: Antiviral activity in HCV replicon cells (Renilla luciferase); assay type: cell-based
Summary of the method: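 Replicon cells stably carrying the HCV genome, pre-cultured 24 h at 37 °C, treated with compound for 72 h, then lysed on ice. Renilla luciferase luminescence used as a measure of HCV genome level, expressed relative to DMSO-treated cells, from which EC50 was derived.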

[1] = tested on: mitochondria obtained from hepatocytes; assay: Inhibitory activity on calcium-induced mitochondrial swelling (absorbance 520 nm)
Summary of the method: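 Mitochondria isolated from hepatocytes by Dounce disruption, 700×g clearing and 12,000×g pelleting. Swelling induced with calcium and followed as absorbance at 520 nm; activity expressed as IC50.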

[2] = cyclophilin, chymotrypsin, Suc-AAPF-pNA, read-out: Test Example 1: cis-trans isomerase inhibitory activity (IC50)
[3] = Hepatitis C virus, HCV replicon cells, 72 hr, Renilla luciferase, relative to DMSO, read-out: Test Example 3: antiviral activity (EC50)
[4] = Hepatocyte, calcium-induced swelling of extracted mitochondria, read-out: Test Example 4: inhibiting mitochondrial swelling (IC50)
[5] = read-out: Test Example 1: cis-trans isomerase inhibitory activity (IC50) group
[6] = Hepatitis C virus, HCV replicon cells, read-out: Test Example 3: antiviral activity (EC50) group
[7] = Hepatocyte, read-out: Test Example 4: activity on inhibiting mitochondrial swelling (IC50) group
[8] = Hepatitis C virus, 72 h, read-out: Test Example 3: antiviral activity (EC50)
[9] = HCV replicon cells, 72 hr, Renilla luciferase, relative to DMSO, read-out: Test Example 3: antiviral activity (EC50)
[10] = calcium-induced swelling of extracted mitochondria, read-out: Test Example 4: inhibiting mitochondrial swelling (IC50)

| SMILES | IC50 (cyclophilin; [2]) [nM] | EC50 (hepatitis C virus; [3]) [nM] | IC50 [1, 4] [nM] | other results |
| --- | --- | --- | --- | --- |
| Cc1cccc(C=Cc2ccc(CC(C)(C)C)cc2)c1C(=O)O [Compound 139] | ≤ 20 | < 500 | < 5000 |  |
| CC(C)OC(=O)c1ccccc1C=C(N)c1ccc(CC(C)(C)C)cc1 [Compound 104] | 20 to 200 | 500 to 5000 | 5000 to 50000 |  |
| COC(=O)c1ccccc1C=Cc1ccc(CC2CCCC2)cc1 [Compound 126] | 20 to 200 | 500 to 5000 | 5000 to 50000 |  |
| CC(C)(C)Cc1ccc(C=Cc2c(O)cccc2C(=O)O)cc1 [Compound 150] |  |  |  | IC50 (cyclophilin; [5]): ≤ 20 nM; EC50 (hepatitis C virus; [6]): < 500 nM; IC50 [1, 7]: < 5000 nM |
| N#CC(=Cc1ccccc1CCc1cccc(Cl)c1)c1ccc([N+](=O)[O-])cc1 [Compound 47] | 20 to 200 | 500 to 5000 | 5000 to 50000 |  |
| CCCCOC(=O)c1ccccc1C=C(C)c1ccc(Cc2ccccc2)cc1 [Compound 97] | 20 to 200 |  | 5000 to 50000 | EC50 (hepatitis C virus; [8]): 500 to 5000 nM |
| CC(C)CCc1ccccc1C=C(C#N)c1ccc([N+](=O)[O-])cc1 [Compound 36] | 20 to 200 | 500 to 5000 | 5000 to 50000 |  |
| CC(C)(C)Cc1ccc(C=Cc2ccccc2C(=O)OC2CCCCC2)cc1 [Compound 77] | 20 to 200 | 500 to 5000 | 5000 to 50000 |  |
| N#CC(=Cc1ccccc1C1CCCCC1)c1ccc([N+](=O)[O-])cc1 [Compound 31] | 20 to 200 |  |  | EC50 (hepatitis C virus; [8]): 500 to 5000 nM; IC50 ([1]; Hepatocyte, read-out: Test Example 4: inhibiting mitochondrial swelling (IC50)): 5000 to 50000 nM |
| CC(C)(C)Cc1ccc(C=Cc2ccc(N)cc2C(=O)O)cc1 [Compound 138] | ≤ 20 | < 500 | < 5000 |  |
| N#CC(=Cc1ccccc1CCCc1ccccc1)c1ccc([N+](=O)[O-])cc1 [Compound 42] | 200 to 2000 | 5000 to 50000 | 50000 to 500000 |  |
| CCCCOC(=O)c1ccccc1C=Cc1ccc(CC(C)(C)C)cc1C [Compound 67] | 20 to 200 | 500 to 5000 | 5000 to 50000 |  |
| CCCCOC(=O)c1ccccc1C=Cc1ccc(CC(C)CC)cc1 (stereo not drawn) [Compound 78] | 20 to 200 | 500 to 5000 | 5000 to 50000 |  |
| CCCCOC(=O)c1ccccc1C=Cc1ccc(CC(C)(C)C)nc1 [Compound 144] | 20 to 200 | 500 to 5000 | 5000 to 50000 |  |
| N#CC(=Cc1ccccc1CCc1ccc(Cl)cc1)c1ccc([N+](=O)[O-])cc1 [Compound 48] | 20 to 200 |  | 5000 to 50000 | EC50 (hepatitis C virus; [8]): 500 to 5000 nM |
| Cc1ccc(C=Cc2ccc(CC(C)(C)C)cc2)c(C(=O)O)c1 [Compound 140] | ≤ 20 | < 500 | < 5000 |  |
| CCc1ccc(C(C#N)=Cc2ccccc2N(C)C)cc1 [Compound 3] | 200 to 2000 |  |  | EC50 (hepatitis C virus; [9]): 5000 to 50000 nM; IC50 [1, 10]: 50000 to 500000 nM |
| CCCCOC(=O)c1c(C)cccc1C=C(Cl)c1ccc(CC(C)(C)C)cc1 [Compound 113] | ≤ 20 | < 500 | < 5000 |  |
| COc1ccccc1C=C(C#N)c1ccc(Cc2ccccc2)cc1 [Compound 20] | ≤ 20 | < 500 | < 5000 |  |
| CC(C)(C)Cc1ccc(C(C#N)=Cc2ccccc2C(=O)O)cc1 [Compound 54] | ≤ 20 | < 500 | < 5000 |  |
| CCCCOC(=O)c1c(C)cccc1C=C(N)c1ccc(CC(C)(C)C)cc1 [Compound 99] | 20 to 200 | 500 to 5000 | 5000 to 50000 |  |
| CCCCOC(=O)c1ncccc1C=Cc1ccc(CC(C)(C)C)cc1 [Compound 145] | 20 to 200 | 500 to 5000 | 5000 to 50000 |  |
| N#CC(=Cc1ccccc1N1CCOCC1)c1ccc([N+](=O)[O-])cc1 [Compound 30] | 200 to 2000 | 5000 to 50000 | 50000 to 500000 |  |

| SMILES | IC50 (cyclophilin; [2]) [nM] | EC50 (hepatitis C virus; [3]) [nM] | IC50 [1, 4] [nM] | other results |
| --- | --- | --- | --- | --- |
| CN1CCN(c2ccccc2C=C(C#N)c2ccc([N+](=O)[O-])cc2)CC1 [Compound 25] | 200 to 2000 | 5000 to 50000 | 50000 to 500000 |  |
| CC(C)(Cc1ccc(C(C#N)=Cc2ccccc2C(=O)O)cc1)CC1CC1 [Compound 63] | 20 to 200 | 500 to 5000 | 5000 to 50000 |  |
| CC(C)(C)Cc1ccc(C=Cc2c(N)cccc2C(=O)O)cc1 [Compound 151] |  |  |  | IC50 (cyclophilin; [5]): ≤ 20 nM; EC50 (hepatitis C virus; [6]): < 500 nM; IC50 [1, 7]: < 5000 nM |
| CC(=Cc1ccccc1C(=O)OC1CCCCC1)c1ccc(CC(C)(C)C)cc1 [Compound 93] | 20 to 200 | 500 to 5000 | 5000 to 50000 |  |
| CCCCCc1ccc(C=Cc2ccccc2C(=O)OC)cc1 [Compound 130] | ≤ 20 | < 500 | < 5000 |  |
| N#CC(=Cc1ccccc1C(=O)O)c1ccc(Cc2ccccc2)cc1 [Compound 21] | ≤ 20 |  |  | EC50 (hepatitis C virus; [9]): < 500 nM; IC50 [1, 10]: < 5000 nM |
| CC(C)(C)c1ccc(CCc2ccccc2C=C(C#N)c2ccc([N+](=O)[O-])cc2)cc1 [Compound 45] | 20 to 200 | 500 to 5000 | 5000 to 50000 |  |
| CCCCOC(=O)c1cccc(C(=O)OCCCC)c1C=Cc1ccc(CC(C)(C)C)cc1 [Compound 149] |  |  |  | IC50 (cyclophilin; [5]): 20 to 200 nM; EC50 (hepatitis C virus; [6]): 500 to 5000 nM; IC50 [1, 7]: 5000 to 50000 nM |
| COc1ccccc1C=C(C#N)c1ccc(C(C)(C)C)cc1 [Compound 11] | 200 to 2000 | 5000 to 50000 | 50000 to 500000 |  |
| N#CC(=Cc1ccccc1CC1CCCCC1)c1ccc([N+](=O)[O-])cc1 [Compound 41] | ≤ 20 | < 500 | < 5000 |  |
| COC(=O)c1ccccc1C=Cc1ccc(Cc2ccccc2)cc1 [Compound 128] | 20 to 200 |  | 5000 to 50000 | EC50 (hepatitis C virus; [8]): 500 to 5000 nM |
| CCCCOC(=O)c1cc(C)ccc1C=C(C)c1ccc(CC(C)(C)C)cc1 [Compound 85] | 20 to 200 | 500 to 5000 | 5000 to 50000 |  |
| CCCCOC(=O)c1ccccc1C=C(C)c1ccc(CC(C)(C)C)cc1C [Compound 84] | 20 to 200 | 500 to 5000 | 5000 to 50000 |  |
| CCCCOc1ccc(C(C#N)=Cc2ccccc2C(=O)O)cc1 [Compound 19] | 20 to 200 |  |  | EC50 (hepatitis C virus; [9]): 500 to 5000 nM; IC50 [1, 10]: 5000 to 50000 nM |
| CC(C)(C)Cc1ccc(C=Cc2cccc(O)c2C(=O)O)cc1 [Compound 135] | ≤ 20 | < 500 | < 5000 |  |
| CCCCOC(=O)c1c(C=C(F)c2ccc(CC(C)(C)C)cc2)ccc(C)c1C [Compound 116] | ≤ 20 | < 500 | < 5000 |  |
| CCCCc1ccc(C(C#N)=Cc2ccccc2C(=O)O)cc1 [Compound 8] | 20 to 200 |  |  | EC50 (hepatitis C virus; [9]): 500 to 5000 nM; IC50 [1, 10]: 5000 to 50000 nM |
| CCC(C)Cc1ccc(C=Cc2ccccc2C(=O)OC)cc1 (stereo not drawn) [Compound 125] | 20 to 200 | 500 to 5000 | 5000 to 50000 |  |
| CCCCOC(=O)c1cc2ccccc2cc1C=Cc1ccc(CC(C)(C)C)cc1 [Compound 142] | 20 to 200 | 500 to 5000 | 5000 to 50000 |  |
| CC(C)(C)Cc1ccc(C=Cc2ccccc2C(=O)OCC2CCCCC2)cc1 [Compound 74] | ≤ 20 | < 500 | < 5000 |  |
| CCCCCOC(=O)c1ccccc1C=C(N)c1ccc(CC(C)(C)C)cc1 [Compound 103] | 20 to 200 | 500 to 5000 | 5000 to 50000 |  |
| CCCCOC(=O)c1ccccc1C=C(N)c1ccc(CC(C)(C)C)cc1C [Compound 100] | 20 to 200 | 500 to 5000 | 5000 to 50000 |  |
